Laboratory results reported in paper PMC8168783, “An anion and small molecule inhibition study of the β-carbonic anhydrase from Staphylococcus aureus” (Journal of Enzyme Inhibition and Medicinal Chemistry, 2021).

Target: T1, SauBCA
T1 construct: recombinant, obtained in-house as described earlier
Assay: stopped-flow CO2 hydration assay
Format: biochemical, Staphylococcus aureus
Conditions: CO2 1.7-17 mM, 10 mM Hepes pH 7.4, 10 mM NaClO4, 15 min preincubation at room temperature

Structure (SMILES) | Ki (inhibitor as sodium salt) [mM] | Ki (not as sodium salt) [mM]
O=S(O)O [bisulphite] | 0.9 | –
OB(O)c1ccccc1 [phenylboronic acid] | – | 0.008
[O]=[Sn]([OH])[OH] [stannate] | 0.32 | –
N#C[SeH] [selenocyanate] | 5.5 | –
O=[As](O)(O)c1ccccc1 [phenylarsonic acid] | 0.007 | –
CCN(CC)C(=S)S [N,N-diethyldithiocarbamate] | 0.64 | –
